Values of other authors in article PMC9324670, “Pd(II) Binding Strength of a Novel Ambidentate Dipeptide-Hydroxypyridinonate Ligand: A Solution Equilibrium Study” (Molecules, 2022).

What was measured:
[1] = pH-potentiometry
[2] = parameters: method as in doi:10.1016/S0020-1693(00)91874-7; settings: fixed values used in the equilibrium models

| SMILES | pKOH(3) [1] | logβ (stability constant of the complex in the Pd(II)–Cl^− system) [2] |
| --- | --- | --- |
| Cc1c(O)c(=O)ccn1C [H(L4), 3-hydroxy-1,2-dimethylpyridin-4(1H)-one] | 9.76 | – |
| [Cl][Pd-]([Cl])[Cl] [[PdCl3]^−] | – | 10.17 |
| [Cl][Pd+] [[PdCl]^+] | – | 4.47 |
| [Cl][Pd-2]([Cl])([Cl])[Cl] [[PdCl4]^2−] | – | 11.56 |
| [Cl][Pd][Cl] [[PdCl2]] | – | 7.76 |
